# Source: PMC6494957 (Frontiers in Microbiology, 2019)
# Assays:
# A. baumannii ATCC 12457 = test: microbe, parasite or virus in culture
# Method: (§1) The MIC for ampicillin or gentamicin against each isolate was determined for each test to serve as an internal quality control. The MICs of isolates were determined by visual reading and using an EnSpire Multimode Plate Reader 2300 atA600nm.
# (§2) Briefly, antimicrobial stock solutions for robenidine and PMBN were prepared at a concentration of 12.8 mg/ml in DMSO. […] A 1 μl aliquot of the first compound from each combination was dispensed along the abscissa (from row A to G) of the 96-well microplate, while the second compound was dispensed along the ordinate (from column 12 to column 3) using an electronic multichannel pipette followed by 89 μl of LB broth. Each well of the plate was inoculated with an aliquot of 10 μl bacterial suspension at a concentration of 1-5 × 10^6 colony forming units (CFU) per ml. Subsequently, the plate was incubated at 37°C for 24 h. The fractional inhibitory concentration index (FICI) described the results of the combinations, and was calculated utilizing the following formula:
# (§3) DRI = MIC of drug alone/MIC of drug in combination
# A. baumannii ATCC 19606 = test: microbe, parasite or virus in culture
# Method: as §1, §2, §3
# [1] = system: A. calcoaceticus (human clinical isolate); test: microbe, parasite or virus in culture
# Method: as §1, §2, §3
# E. coli ATCC 11229 = test: microbe, parasite or virus in culture
# Method: as §1, §2, §3
# E. coli ATCC 25922 = test: microbe, parasite or virus in culture
# Method: as §1, §2, §3
# K. pneumoniae ATCC 13883 = test: microbe, parasite or virus in culture
# Method: as §1, §2, §3
# P. aeruginosa ATCC 27853 = test: microbe, parasite or virus in culture
# Method: as §1, §2, §3
# P. mirabilis ATCC 43071 = test: microbe, parasite or virus in culture
# Method: as §1, §2, §3
# P. putida ATCC 17428 = test: microbe, parasite or virus in culture
# Method: as §1, §2, §3
# [2] = system: preformed biofilms of P. aeruginosa PA01 and clinical isolates of P. aeruginosa; test: Antibiofilm susceptibility (MBEC device) and biofilm checkerboard; type: cell-based, Pseudomonas aeruginosa; details: P. aeruginosa biofilms; up to 128 μg/ml; 24 h
# Method: Briefly, biofilms of P. aeruginosa PA01, two clinical isolates of P. aeruginosa isolates and two clinical isolates of S. pseudintermedius were formed by inoculating 150 μl of 10^7 CFU/ml of each bacterial suspension in the MBEC^TM device. The inoculated device was aerobically incubated on an orbital shaker at 37°C (OM11, Ratek Instruments Pty Ltd., Australia) for 24 h to produce equivalent (Uniform) biofilms on all pegs. […] Following antimicrobial challenge, the biofilms were rinsed twice with phosphate buffered saline (pH = 7) and disrupted via sonication (Soniclean, Model 160TD, Australia) for 10 min into the recovery medium. Viable cell counts were determined for recovered cells (colony-forming units per peg) after preparing a serial dilution and plating 10 μl in duplicates of each dilution onto plate count agar. Viable counts were then expressed as a percentage of the mean CFU of growth controls. MBEC was defined as the lowest concentration of antimicrobial agent that eradicates the biofilms recovered from the antimicrobial challenge.
# Briefly, the MBEC^TM High-throughput assay system (MBEC^TM BioProducts, Innovotech, Canada) was used for the preparation of Gram-positive and Gram-negative biofilm producing bacteria as described above for antibiofilm susceptibility testing. […] Subsequently, the plate was incubated at 37°C for 24 h.
# [3] = A. baumannii ATCC 12457, concentration of the labelled component
# [4] = A. baumannii ATCC 19606, concentration of the labelled component
# [5] = A. calcoaceticus human clinical isolate, concentration of the labelled component
# [6] = E. coli ATCC 11229, concentration of the labelled component
# [7] = E. coli ATCC 25922, concentration of the labelled component
# [8] = K. pneumoniae ATCC 13883, concentration of the labelled component
# [9] = P. aeruginosa ATCC 27853, concentration of the labelled component
# [10] = P. putida ATCC 17428, concentration of the labelled component
smiles,measurement,setting,value
"N=C(N/N=C/c1ccc(Cl)cc1)N/N=C/c1ccc(Cl)cc1 [ROB, robenidine]",DRI EDTA:ROB,"A. baumannii ATCC 12457; A. baumannii ATCC 12457, DRI of the labelled component",32
same,MIC in combination EDTA:ROB,A. baumannii ATCC 12457; [3],2 µg/mL
same,MIC in combination PMBN:ROB,A. baumannii ATCC 12457; [3],2 µg/mL
same,MIC,"A. baumannii ATCC 12457; Acinetobacter baumannii, ATCC12457, read-out: MIC, single drug",64 µg/mL
same,DRI EDTA:ROB,"A. baumannii ATCC 19606; A. baumannii ATCC 19606, DRI of the labelled component",8
same,MIC in combination EDTA:ROB,A. baumannii ATCC 19606; [4],4 µg/mL
same,MIC in combination PMBN:ROB,A. baumannii ATCC 19606; [4],2 µg/mL
same,MIC,"A. baumannii ATCC 19606; Acinetobacter baumannii, ATCC19606, read-out: MIC, single drug",32 µg/mL
same,DRI EDTA:ROB,"[1]; A. calcoaceticus human clinical isolate, DRI of the labelled component",32
same,MIC in combination EDTA:ROB,[1]; [5],0.125 µg/mL
same,MIC in combination PMBN:ROB,[1]; [5],0.5 µg/mL
same,MIC,"[1]; Acinetobacter calcoaceticus, read-out: MIC, single drug",4 µg/mL
same,"MIC, single drug",E. coli ATCC 11229; E. coli ATCC 11229,>256 µg/mL
same,DRI EDTA:ROB,"E. coli ATCC 11229; E. coli ATCC 11229, DRI of the labelled component",32
same,MIC in combination EDTA:ROB,E. coli ATCC 11229; [6],8 µg/mL
same,MIC in combination PMBN:ROB,E. coli ATCC 11229; [6],8 µg/mL
same,MIC,"E. coli ATCC 11229; Escherichia coli, ATCC11229, read-out: MIC, single drug",> 256 µg/mL
same,"MIC, single drug",E. coli ATCC 25922; E. coli ATCC 25922,>256 µg/mL
same,DRI EDTA:ROB,"E. coli ATCC 25922; E. coli ATCC 25922, DRI of the labelled component",64
same,MIC in combination EDTA:ROB,E. coli ATCC 25922; [7],4 µg/mL
same,MIC in combination PMBN:ROB,E. coli ATCC 25922; [7],8 µg/mL
same,MIC,"E. coli ATCC 25922; Escherichia coli, ATCC25922, read-out: MIC, single drug",> 256 µg/mL
same,"MIC, single drug",K. pneumoniae ATCC 13883; K. pneumoniae ATCC 13883,>256 µg/mL
same,DRI EDTA:ROB,"K. pneumoniae ATCC 13883; K. pneumoniae ATCC 13883, DRI of the labelled component",2
same,MIC in combination EDTA:ROB,K. pneumoniae ATCC 13883; [8],128 µg/mL
same,MIC in combination PMBN:ROB,K. pneumoniae ATCC 13883; [8],4 µg/mL
same,MIC,"K. pneumoniae ATCC 13883; Klebsiella pneumoniae, ATCC13883, read-out: MIC, single drug",> 256 µg/mL
same,"MIC, single drug",P. aeruginosa ATCC 27853; P. aeruginosa ATCC 27853,>256 µg/mL
same,DRI EDTA:ROB,"P. aeruginosa ATCC 27853; P. aeruginosa ATCC 27853, DRI of the labelled component",256
same,MIC in combination EDTA:ROB,P. aeruginosa ATCC 27853; [9],1.25 µg/mL
same,MIC in combination PMBN:ROB,P. aeruginosa ATCC 27853; [9],1 µg/mL
same,MIC,"P. aeruginosa ATCC 27853; Pseudomonas aeruginosa, ATCC27853, read-out: MIC, single drug",> 256 µg/mL
same,"MIC, single drug",P. mirabilis ATCC 43071; P. mirabilis ATCC 43071,>256 µg/mL
same,DRI EDTA:ROB,"P. mirabilis ATCC 43071; P. mirabilis ATCC 43071, DRI of the labelled component",256
same,MIC in combination EDTA:ROB,"P. mirabilis ATCC 43071; P. mirabilis ATCC 43071, concentration of the labelled component",1.25 µg/mL
same,MIC,"P. mirabilis ATCC 43071; Proteus mirabilis, ATCC43071, read-out: MIC, single drug",> 256 µg/mL
same,DRI EDTA:ROB,"P. putida ATCC 17428; P. putida ATCC 17428, DRI of the labelled component",256
same,MIC in combination EDTA:ROB,P. putida ATCC 17428; [10],1.25 µg/mL
same,MIC in combination PMBN:ROB,P. putida ATCC 17428; [10],1:1 μg/ml
same,MIC,"P. putida ATCC 17428; Pseudomonas putida, ATCC17428, read-out: MIC, single drug",> 256 µg/mL
same,antibiofilm activity,[2],did not show any antibiofilm activity
